# According to ChEMBL document CHEMBL4330055, “Development of Inhibitors of the Programmed Cell Death-1/Programmed Cell Death-Ligand 1 Signaling Pathway” (J Med Chem, 2019):
# Where a SMILES comes first, the peptide text is derived from it. Bridges are numbered along the chain shown (N, C = ends).
# Biological target: T1, Programmed cell death protein 1/Programmed cell death 1 ligand 1 (Homo sapiens, UniProt Q15116+Q9NZQ7)
# Test: Inhibition of recombinant human PD1 (25 to 167 residues)/human PDL1 (19 to 238 residues) interaction after 40 mins by HTRF assay
# Type: protein-complex assay
# T1 sequence (Q15116 whole entry, the tested form may be a part): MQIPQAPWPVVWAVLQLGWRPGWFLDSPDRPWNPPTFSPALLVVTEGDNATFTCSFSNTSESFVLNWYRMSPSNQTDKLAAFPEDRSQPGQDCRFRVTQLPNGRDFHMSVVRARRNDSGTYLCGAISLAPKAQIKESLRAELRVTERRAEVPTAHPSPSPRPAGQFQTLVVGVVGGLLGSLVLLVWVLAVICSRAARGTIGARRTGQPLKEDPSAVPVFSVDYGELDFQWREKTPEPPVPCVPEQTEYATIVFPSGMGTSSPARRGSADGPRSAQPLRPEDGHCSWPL
# T1 sequence (Q9NZQ7 whole entry, the tested form may be a part): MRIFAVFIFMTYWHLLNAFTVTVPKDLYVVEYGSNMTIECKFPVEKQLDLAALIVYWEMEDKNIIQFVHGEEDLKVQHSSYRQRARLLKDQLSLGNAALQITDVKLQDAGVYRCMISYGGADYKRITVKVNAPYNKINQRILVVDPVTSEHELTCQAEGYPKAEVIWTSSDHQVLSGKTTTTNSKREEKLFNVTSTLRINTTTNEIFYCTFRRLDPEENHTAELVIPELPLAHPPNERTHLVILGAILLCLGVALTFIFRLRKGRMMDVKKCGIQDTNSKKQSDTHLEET
row,Compound,IC50 [nM]
1,Cc1cc(C(=O)Nc2cccc(-c3ccccc3)c2C)ncc1CNCCO,≤ 100
2,N#Cc1c(-c2ccc3c(c2)OCCO3)cccc1N1CCC(NC2CCCOC2)CC1 (configuration not stated),≤ 100
3,Cc1c(-c2ccccc2)cccc1-n1cc2c(n1)CNCC2,≤ 100
4,N#Cc1c(NC(=O)c2nc3c(s2)CNCC3)cccc1-c1ccc2c(c1)OCC2,≤ 100
5,COc1cc2oc(-c3cccc(-c4ccccc4)c3C)nc2cc1CNCCO,≤ 100
6,Cc1c(-c2ccccc2)cccc1-c1cc2ccc(CNCCO)cn2n1,≤ 100
7,N#Cc1c(Nc2nccc3cc(CNCCO)cnc23)cccc1C1=CCCCC1,≤ 100

# Biological target: T1, Programmed cell death protein 1/Programmed cell death 1 ligand 1
# Test: Inhibition of PD1/PDL1 (unknown origin) interaction at 10 uM after 15 mins by HTRF assay relative to control
# Type: protein-complex assay
row,Compound,inhibition [%]
1,COc1ccc(Nc2cc(C(=O)Nc3ccc(Oc4ccccc4)cc3)ccn2)cc1,36

# Biological target: T1, Programmed cell death protein 1/Programmed cell death 1 ligand 1
# Test: Inhibition of PD1/PDL1 (unknown origin) interaction by HTRF assay
# Type: protein-complex assay
row,Compound,IC50 [nM]
1,Cc1c(/C=C/c2ncc(CNC(CO)C(=O)O)cc2C(F)(F)F)cccc1-c1ccc2c(c1)OCCO2 (configuration not stated),36

# Biological target: T1, Programmed cell death protein 1/Programmed cell death 1 ligand 1
# Test: Inhibition of PD1/PDL1 (unknown origin) at 500 uM after 15 mins by HTRF assay relative to control
# Type: protein-complex assay
row,Compound,inhibition [%]
1,CN(C)CCOc1ccc([N+](=O)[O-])c(OC(=O)N(C)C)c1,43

# Biological target: T2, Programmed cell death 1 ligand 1 (Homo sapiens, UniProt Q9NZQ7)
# Test: Binding affinity to biotinylated PDL1 (unknown origin) expressed in Escherichia coli OmpX membrane after 45 mins by SAPE-fluorescence based flow cytometry
# Type: cell membranes
# T2 sequence (Q9NZQ7 whole entry): as the sequence (Q9NZQ7 whole entry, the tested form may be a part) above
row,Compound,Kd [nM]
1,C[C@H](NC(=O)[C@H](Cc1ccc(O)cc1)NC(=O)[C@H](CCC(N)=O)NC(=O)CNC(=O)[C@@H](N)CO)C(=O)N[C@@H](CO)C(=O)N[C@@H](Cc1ccc(O)cc1)C(=O)N[C@@H](Cc1cnc[nH]1)C(=O)N[C@@H](CS)C(=O)N[C@@H](Cc1c[nH]c2ccccc12)C(=O)N[C@@H](CS)C(=O)N[C@@H](Cc1c[nH]c2ccccc12)C(=O)N[C@@H](CCCNC(=N)N)C(=O)N[C@@H](CC(=O)O)C(=O)N1CCC[C@H]1C(=O)NCC(=O)N[C@@H](CCCNC(=N)N)C(=O)N[C@@H](CO)C(=O)NCC(=O)NCC(=O)N[C@@H](CO)C(=O)N[C@@H](CCCCN)C(=O)O (H-SGQYASYHCWCWRDPGRSGGSK-OH),94

# Biological target: T1, Programmed cell death protein 1/Programmed cell death 1 ligand 1
# Test: Inhibition of PD1/PDL1 interaction in human jurkat cells co-expressing TCR promoter assessed as TCR activation by luciferase reporter gene assay
# Type: cell-based
row,Compound,EC50 [µM]
1,CC[C@H](C)[C@@H]1NC(=O)[C@H](CC(C)C)NC(=O)[C@H](Cc2ccccc2)NC(=O)CSC[C@@H](C(=O)NCC(N)=O)NC(=O)[C@H](CCCNC(=N)N)NC(=O)[C@H](Cc2ccccc2)NC(=O)[C@H](C(C)C)NC(=O)[C@H](CCCNC(=N)N)NC(=O)[C@H](CC(=O)O)NC(=O)[C@H](CCCNC(=N)N)NC(=O)[C@H]([C@@H](C)CC)NC(=O)[C@H](C(C)C)NC1=O ({CH2CO}-FLIVIRDRVFRCG-NH2; thioether N-12),6.3

# Biological target: Programmed cell death 1 ligand 1 (Mus musculus) (UniProt Q9EP73)
# Test: Inhibition of PDL1 in C57BL6 mouse splenocytes assessed as protection against ant-CD3/CD28-stimulated cell proliferation at 100 nM after 4 hrs by CFSE-based FACS analysis relative to control
# Chain of Programmed cell death 1 ligand 1 (Mus musculus) (Q9EP73 whole entry): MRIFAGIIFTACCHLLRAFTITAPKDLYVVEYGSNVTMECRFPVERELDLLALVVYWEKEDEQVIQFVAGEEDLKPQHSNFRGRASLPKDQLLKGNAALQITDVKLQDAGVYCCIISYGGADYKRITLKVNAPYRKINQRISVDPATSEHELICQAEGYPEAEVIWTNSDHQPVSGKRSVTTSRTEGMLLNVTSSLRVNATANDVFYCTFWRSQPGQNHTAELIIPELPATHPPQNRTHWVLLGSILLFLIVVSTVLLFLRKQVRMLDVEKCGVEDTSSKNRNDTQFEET
row,Compound,inhibition [%]
1,C[C@@H](O)[C@@H]1NC(=O)COCCOCCNC(=O)[C@@H](CO)NC(=O)N[C@H](C(N)=O)C(=O)NNC1=O,94
2,C[C@@H](O)[C@H](N)c1noc([C@H](Cc2ccc(O)cc2)NC(=O)N2CCC[C@H]2C(=O)O)n1,99
3,"C[C@@H](O)C(NC(=O)[C@H](CCC(=O)O)NC(=O)[C@@H](N)CO)C(=O)N[C@H](CO)C(=O)N[C@H](CCCCN)C(=O)N[C@H](CO)CN[C@H](Cc1ccccc1)C(N)=O (single isomer, unassigned)",81
4,C[C@@H](O)[C@H](N)c1nnc([C@H](CCC(N)=O)NC(=O)N[C@@H](CO)C(=O)O)o1,92
5,COCCNC(=O)CC[C@H](NS(=O)(=O)C1CC1)c1nnc(-c2ccccc2OC)o1,97
6,NCCCC[C@H](NC(=O)N[C@@H](CC(N)=O)C(=O)NNC(=O)[C@@H](N)CO)C(=O)O,87
7,C[C@@H](O)[C@@H]1NC(=O)N[C@@H](C(N)=O)C(=O)NNC(=O)[C@@H](CO)NC(=O)COCCOCCNC1=O,95
8,C[C@@H](O)[C@@H]1C(=O)N[C@H](CO)C(=O)N[C@H](C(=O)N[C@@H](CO)C(=O)N[C@@H](Cc2ccccc2)C(N)=O)CCCCNC(=O)CC[C@H](NC(=O)[C@@H](N)CO)C(=O)N1C,82
9,C[C@@H](O)[C@@H](NC(=O)N[C@@H](CC(N)=O)c1nc([C@@H](N)CO)no1)C(=O)O,97
10,NC(=O)C[C@H](NC(=O)[C@@H]1C[C@H](O)CN1)c1nc(N2CCCC2)no1,91

# Biological target: T3, V-type immunoglobulin domain-containing suppressor of T-cell activation (Homo sapiens) (UniProt Q9H7M9)
# T3 sequence (whole entry): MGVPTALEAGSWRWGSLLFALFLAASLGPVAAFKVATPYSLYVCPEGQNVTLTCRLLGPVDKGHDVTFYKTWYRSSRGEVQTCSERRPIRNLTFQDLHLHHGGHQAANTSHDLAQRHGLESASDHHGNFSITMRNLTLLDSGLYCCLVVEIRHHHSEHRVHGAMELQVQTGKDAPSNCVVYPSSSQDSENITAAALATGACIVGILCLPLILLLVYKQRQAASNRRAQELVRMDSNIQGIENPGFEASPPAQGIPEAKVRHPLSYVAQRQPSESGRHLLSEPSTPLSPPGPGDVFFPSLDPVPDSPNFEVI
# Test: Inhibition of VISTA signaling in human PBMC assessed as IFNgamma release at 100 nM after 30 mins by ELISA
row,inhibition [%],Compound
1,99,C[C@@H](O)[C@H](NC(=O)N[C@@H](CC(N)=O)c1nc([C@@H](N)Cc2ccccc2)no1)C(=O)O
2,> 70,C[C@@H](O)[C@@H](NC(=O)N[C@@H](CC(N)=O)c1nc([C@@H](N)CO)no1)C(=O)O

# Biological target: T2, Programmed cell death 1 ligand 1
# Test: Binding affinity to Fc-labeled human PDL1 expressed in Escherichia coli by SPR spectroscopy
row,Compound,Kd [nM]
1,H-KHAHHTHNLRLP-OH,1130
2,C[C@@H](O)[C@H](NC(=O)[C@@H]1CCCN1C(=O)[C@H](CCCCN)NC(=O)[C@H](CO)NC(=O)[C@H](Cc1ccc(O)cc1)NC(=O)[C@@H](N)CC(N)=O)C(=O)N[C@@H](CC(=O)O)C(=O)N[C@@H](CCCNC(=N)N)C(=O)N[C@@H](CCC(N)=O)C(=O)N[C@@H](Cc1ccc(O)cc1)C(=O)N[C@@H](Cc1cnc[nH]1)C(=O)N[C@@H](Cc1ccccc1)C(=O)O,510
3,H-MRNRERYPKPYY-OH,22000
